From ChEMBL document CHEMBL4308869, “Towards lead compounds as anti-cancer agents via new phaeosphaeride A derivatives” (Bioorg Med Chem Lett, 2019)

Legend:
[1] = test system: HCT-116; test: Cytotoxicity against human HCT116 cells after 72 hrs by MTT assay; format: functional, cell-based; details: HCT-116, 72 h
[2] = test system: PC-3; test: Cytotoxicity against human PC3 cells after 72 hrs by MTT assay; format: functional, cell-based; details: PC-3, 72 h
[3] = test system: MCF7; test: Cytotoxicity against human MCF7 cells after 72 hrs by MTT assay; format: functional, cell-based; details: MCF7, 72 h
[4] = test system: A549; test: Cytotoxicity against human A549 cells after 72 hrs by MTT assay; format: functional, cell-based; details: A549, 72 h
[5] = test system: HEF; test: Cytotoxicity against HEF after 72 hrs by MTT assay; format: cell-based; details: Homo sapiens
[6] = test system: K562; test: Cytotoxicity against human K562 cells after 72 hrs by MTT assay; format: functional, cell-based; details: K562, 72 h
[7] = test system: NCI-H929; test: Cytotoxicity against human NCI-H929 cells after 72 hrs by MTT assay; format: functional, cell-based; details: NCI-H929, 72 h
[8] = test system: Jurkat; test: Cytotoxicity against human Jurkat cells after 72 hrs by MTT assay; format: functional, cell-based
[9] = test system: THP-1; test: Cytotoxicity against human THP1 cells after 72 hrs by MTT assay; format: functional, cell-based; details: THP-1, 72 h
[10] = test system: RPMI-8226; test: Cytotoxicity against human RPMI8226 cells after 72 hrs by MTT assay; format: functional, cell-based; details: RPMI-8226, 72 h
[11] = test system: HCT-116; test: Potency index, ratio of PPA IC50 to test compound IC50 for human HCT116 cells; format: functional
[12] = Therapeutic index, ratio of IC50 for HEF to IC50 for human HCT116 cells; format: toxicity; details: HEF cells versus HCT116 cells, read-out: Ratio IC50
[13] = test system: PC-3; test: Potency index, ratio of PPA IC50 to test compound IC50 for human PC3 cells; format: functional
[14] = test system: NCI-H929; test: Potency index, ratio of PPA IC50 to test compound IC50 for human NCI-H929 cells; format: functional
[15] = test system: A549; test: Potency index, ratio of PPA IC50 to test compound IC50 for human A549 cells; format: functional
[16] = Therapeutic index, ratio of IC50 for HEF to IC50 for human NCI-H929 cells; format: toxicity; details: HEF cells versus NCI-H929 cells, read-out: Ratio IC50
[17] = test system: NCI-H929; test: Potency index, ratio of etoposide IC50 to test compound IC50 for human NCI-H929 cells; format: functional
[18] = test system: A549; test: Potency index, ratio of etoposide IC50 to test compound IC50 for human A549 cells; format: functional

`C=C1C2=C(C(=O)N1OC)[C@H](O)[C@@](C)(O)[C@H](CCCCC)O2` showed an IC50 [1] of 44 µM, an IC50 [2] of 32 µM and an IC50 [3] of 20 µM. It also gave an IC50 [4] of 41 µM, an IC50 [5] of 19 µM and an IC50 [6] of 20 µM. It also gave an IC50 [7] of 6.5 µM, an IC50 [8] of 10 µM and an IC50 [9] of 19 µM. It also gave an IC50 [10] of 9.3 µM.

In the case of `C=C1C2=C(C(=O)N1OC)[C@H](OC(=O)CCl)[C@@](C)(O)[C@H](CCCCC)O2`, the IC50 [1] is reported as 2.4 µM, the IC50 [2] is reported as 2.4 µM and the IC50 [3] is reported as 17 µM. For the same compound, the IC50 [4] was 20 µM, the IC50 [5] was 9.1 µM and the “Ratio IC50” value [11] was 20. The selectivity ratio [12] was 3.8, the IC50 [6] was 7 µM and the IC50 [7] was 3.3 µM. The IC50 [8] was 9.6 µM, the IC50 [9] was 11 µM and the IC50 [10] was 9.7 µM.

`C=C1C2=C(C(=O)N1OC)[C@@H](F)[C@@](C)(O)[C@H](CCCCC)O2` showed an IC50 [1] of 31 µM, an IC50 [2] of 12 µM and an IC50 [3] of 37 µM. For the same compound, the IC50 [4] was 42 µM, the IC50 [5] was 37 µM and the “Ratio IC50” value [13] was 3. It also gave an IC50 [6] of 18 µM, an IC50 [7] of 3.9 µM and an IC50 [8] of 15 µM. It also gave an IC50 [9] of 19 µM and an IC50 [10] of 16 µM.

With `C=C1C2=C(C(=O)N1OC)[C@H](OC(=O)CSc1nc3ccccc3o1)[C@@](C)(O)[C@H](CCCCC)O2` the IC50 [1] was 4.9 µM, the IC50 [2] was 5.8 µM and the IC50 [3] was 3.9 µM. The IC50 [4] was 20 µM, the IC50 [5] was 9.3 µM and the IC50 [6] was 4.5 µM. For the same compound, the IC50 [7] was 3 µM, the IC50 [8] was 2.6 µM and the IC50 [9] was 2.3 µM. For the same compound, the IC50 [10] was 5.1 µM.

`C=C1C2=C(C(=O)N1OC)[C@H](OC(=O)CSc1nc3ccccc3[nH]1)[C@@](C)(O)[C@H](CCCCC)O2` gave an IC50 [1] of 8.2 µM, an IC50 [2] of 6.4 µM and an IC50 [3] of 16 µM. The IC50 [4] was 19 µM, the IC50 [5] was 11 µM and the IC50 [6] was 9.3 µM. It also gave an IC50 [7] of 2 µM, an IC50 [8] of 8.9 µM and an IC50 [9] of 5.3 µM. The IC50 [10] was 4.3 µM.

With `C=C1C2=C(C(=O)N1OC)[C@H](OC(=O)CCCCCl)[C@@](C)(O)[C@H](CCCCC)O2` the IC50 [1] was 11 µM, the IC50 [2] was 9.2 µM and the IC50 [3] was 5.4 µM. It also gave an IC50 [4] of 12 µM, an IC50 [5] of 11 µM and an IC50 [6] of 8.5 µM. The IC50 [7] was 2.5 µM, the IC50 [8] was 4.2 µM and the IC50 [9] was 4.6 µM. For the same compound, the IC50 [10] was 4.3 µM.

Work on `C=C1C2=C(C(=O)N1OC)[C@H](OC(=O)CSc1nc3ccccc3s1)[C@@](C)(O)[C@H](CCCCC)O2` yielded an IC50 [1] of 4.7 µM, an IC50 [2] of 5 µM and an IC50 [3] of 6.3 µM. It also gave an IC50 [4] of 5.9 µM, an IC50 [5] of 11 µM and an IC50 [6] of 4.3 µM. For the same compound, the IC50 [7] was 0.59 µM, the IC50 [8] was 2.3 µM and the IC50 [9] was 1.6 µM. For the same compound, the IC50 [10] was 2 µM, the “Ratio IC50” value [14] was 11 and the “Ratio IC50” value [15] was 7. For the same compound, the selectivity ratio [16] was 18.6, the “Ratio IC50” value [17] was 1.5 and the “Ratio IC50” value [18] was 16.

`COc1cc([C@@H]2c3cc4c(cc3[C@@H](O[C@@H]3O[C@@H]5CO[C@@H](C)O[C@H]5[C@H](O)[C@H]3O)[C@H]3COC(=O)[C@H]23)OCO4)cc(OC)c1O` [ETOPOSIDE] gave an IC50 [1] of 22 µM, an IC50 [2] of 2.7 µM and an IC50 [3] of 9.6 µM. It also gave an IC50 [4] of 100 µM, an IC50 [5] of over 100 µM and an IC50 [6] of 9.4 µM. For the same compound, the IC50 [7] was 0.9 µM, the IC50 [8] was 1.4 µM and the IC50 [9] was 1 µM. For the same compound, the IC50 [10] was 4.8 µM.
